One experiment has as its target human BACE-1 (Homo sapiens (Human), UniProt P56817). As to the kind of experiment: Test 1: Inhibition of Human BACE-1. Format: biochemical. The conditions noted are these: recombinant BACE-1, pH 4.5, fluorescence-quenched substrate. The protocol: Test 1: Inhibition of Human BACE-1
(§1) Recombinant BACE-1 (extracellular domain, expressed in baculovirus and purified using standard methods) at 0.1 to 1 nM concentrations is incubated with the test compound at various concentrations for 1 hour at room temperature in 100 mM acetate buffer, pH 4.5, containing 0.1% CHAPS. Activity was measured using a final concentration of 3 μM of the fluorescence-quenched substrate Q-C(HSO3)-Ile-Asp-Leu-Ala-Val-Leu-Asp-HN—CH2—CH2-Mca, where Q=2-nitro-5-amino benzoic acid and Mca=7-methoxy-4-coumarinyl acetic acid. […] Fluorescence increase was followed for 15 min, in 1 minute's intervals. The fluorescence/time slopes were calculated from duplicate wells and from wells without inhibitor and the IC50 values were calculated using a logistic 4-parameter model.

Another experiment concerns the target human BACE-2 (Homo sapiens (Human), UniProt Q9Y5Z0). As to the kind of experiment: Test 2: Inhibition of Human BACE-2. The conditions noted are these: recombinant BACE-2, pH 4.5, fluorescence-quenched substrate. Format: biochemical. On the procedure:
Test 2: Inhibition of Human BACE-2
as §1, with “BACE-2” for “BACE-1”

The test system of experiment [1] is amyloid peptide 1-40 release. As to the kind of experiment: Test 4: Inhibition of Cellular Release of Amyloid Peptide 1-40. Format: cell-based. The note with it: Chinese hamster ovary cells transfected with the human gene for amyloid precursor protein, 24 hours, read-out: Amyloid-β1-40 release IC50. The protocol:
Chinese hamster ovary cells are transfected with the human gene for amyloid precursor protein. The cells are plated at a density of 8000 cells/well into 96-well microtiter plates and cultivated for 24 hours in DMEM cell culture medium containing 10% FCS. The test compound is added to the cells at various concentrations, and the cells are cultivated for 24 hours in the presence of the test compound. […] The potency of the compound is calculated from the percentage of inhibition of amyloid peptide release as a function of the test compound concentration.

Here are results for 21 compounds from US9284284B2, “Oxazine derivatives and their use in the treatment of disease” (NOVARTIS AG, priority 2011, dated 2016).

Where a name gives a salt, the structure may show the parent alone. Read-outs that look alike come from different tables or passages of the source.

human BACE-1, sequence (P56817 46-457): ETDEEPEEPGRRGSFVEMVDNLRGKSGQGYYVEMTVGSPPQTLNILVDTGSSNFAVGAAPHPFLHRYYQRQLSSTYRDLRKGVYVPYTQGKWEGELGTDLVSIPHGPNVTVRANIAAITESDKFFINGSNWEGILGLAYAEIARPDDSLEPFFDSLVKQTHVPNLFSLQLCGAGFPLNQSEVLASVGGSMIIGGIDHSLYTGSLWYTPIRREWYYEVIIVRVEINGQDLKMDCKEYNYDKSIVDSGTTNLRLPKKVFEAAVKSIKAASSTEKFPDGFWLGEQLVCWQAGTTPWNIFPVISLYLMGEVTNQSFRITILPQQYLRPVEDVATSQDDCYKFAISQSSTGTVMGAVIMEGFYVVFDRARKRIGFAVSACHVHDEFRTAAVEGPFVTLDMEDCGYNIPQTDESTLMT
human BACE-2, sequence (Q9Y5Z0 63-473): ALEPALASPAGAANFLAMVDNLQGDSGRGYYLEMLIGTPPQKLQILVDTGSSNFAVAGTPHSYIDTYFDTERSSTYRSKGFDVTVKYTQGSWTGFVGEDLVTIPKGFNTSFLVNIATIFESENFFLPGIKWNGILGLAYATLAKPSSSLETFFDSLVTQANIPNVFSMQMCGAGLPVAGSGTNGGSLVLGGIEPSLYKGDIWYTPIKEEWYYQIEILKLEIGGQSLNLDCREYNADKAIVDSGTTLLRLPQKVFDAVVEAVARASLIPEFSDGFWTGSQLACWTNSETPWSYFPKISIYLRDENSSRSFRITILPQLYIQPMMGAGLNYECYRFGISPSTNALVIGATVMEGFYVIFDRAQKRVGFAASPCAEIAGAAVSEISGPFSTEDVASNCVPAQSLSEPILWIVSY

`Cc1cn2ccnc(Nc3ccc(F)c([C@]4(C(F)F)COCC(N)=N4)c3)c2n1` [Example 12, [3-((R)-5-Amino-3-difluoromethyl-3,6-dihydro-2H-[1,4]oxazin-3-yl)-4-fluoro-phenyl]-(2-methyl-imidazo[1,2-a]pyrazin-8-yl)-amine]: the half-maximal inhibitory concentration (IC50) was 350 nM on human BACE-1, 72 nM at human BACE-2 and 86 nM in experiment [1] (Cricetulus griseus).
On to `NC1=N[C@@](c2cc(Nc3nccn4ccnc34)ccc2F)(C(F)F)COC1` [Example 13, [3-((R)—S-Amino-3-difluoromethyl-3,6-dihydro-2H-[1,4]oxazin-3-yl)-4-fluoro-phenyl]-imidazo[1,2-a]pyrazin-8-yl-amine], for which the IC50 came to 1400 nM on human BACE-1, 410 nM on human BACE-2 and 260 nM in experiment [1].
For `NC1=N[C@@](c2cc(Nc3nccn4c(Br)cnc34)ccc2F)(C(F)F)COC1` [Example 14, [3-((R)-5-Amino-3-difluoromethyl-3,6-dihydro-2H-[1,4]oxazin-3-yl)-4-fluoro-phenyl]-(3-bromo-imidazo[1,2-a]pyrazin-8-yl)-amine], the values for the concentration for half-maximal inhibition (IC50) (at human BACE-1; on human BACE-2; in experiment [1] (Cricetulus griseus)) were 570 nM, 1400 nM and 220 nM, respectively.
The corresponding values for `COc1cccnc1Nc1ccc(F)c([C@]2(C(F)F)COCC(N)=N2)c1` [Example 15, (R)-5-Difluoromethyl-5-[2-fluoro-5-(3-methoxy-pyridin-2-ylamino)-phenyl]-5,6-dihydro-2H-[1,4]oxazin-3-ylamine] are 300 nM, 89 nM and 56 nM.
Regarding `NC1=N[C@@](c2cc(Nc3ncccn3)ccc2F)(C(F)F)COC1` [Example 16, (R)-5-Difluoromethyl-5-[2-fluoro-5-(pyrimidin-2-ylamino)-phenyl]-5,6-dihydro-2H-[1,4]oxazin-3-ylamine], the values for the IC50 (at human BACE-1; on human BACE-2; in experiment [1] (Cricetulus griseus)) were 8600 nM, more than 10000 nM and 2300 nM, respectively.
Taken in the same sequence, the figures for `COc1ccnc(Nc2ccc(F)c([C@]3(C(F)F)COCC(N)=N3)c2)n1` [Example 17, (R)-5-Difluoromethyl-5-[2-fluoro-5-(4-methoxy-pyrimidin-2-ylamino)-phenyl]-5,6-dihydro-2H-[1,4]oxazin-3-ylamine] were 1800 nM, 670 nM and 400 nM.
In the case of `COc1nccnc1Nc1ccc(F)c([C@]2(C(F)F)COCC(N)=N2)c1` [Example 18, (R)-5-Difluoromethyl-5-[2-fluoro-5-(3-methoxy-pyrazin-2-ylamino)-phenyl]-5,6-dihydro-2H-[1,4]oxazin-3-ylamine], the 50% inhibitory concentration (IC50) was 2400 nM on human BACE-1, 1300 nM on human BACE-2 and 670 nM in experiment [1] (Cricetulus griseus).
In the case of `CCOc1cccnc1Nc1ccc(F)c([C@]2(C(F)F)COCC(N)=N2)c1` [Example 19, (R)-5-Difluoromethyl-5-[5-(3-ethoxy-pyridin-2-ylamino)-2-fluoro-phenyl]-5,6-dihydro-2H-[1,4]oxazin-3-ylamine], the IC50 turned out to be 1300 nM on human BACE-1, 160 nM at human BACE-2 and 310 nM in experiment [1] (Cricetulus griseus).
With `NC1=N[C@@](c2cc(Nc3ncccc3OCC(F)F)ccc2F)(C(F)F)COC1` [Example 20, (R)-5-{5-[3-(2,2-Difluoro-ethoxy)-pyridin-2-ylamino]-2-fluoro-phenyl}-5-difluoromethyl-5,6-dihydro-2H-[1,4]oxazin-3-ylamine], the half-inhibitory concentration (IC50) on human BACE-1 came to 1300 nM; at human BACE-2, 220 nM; in experiment [1] (Cricetulus griseus), 530 nM.
Regarding `COc1cncnc1Nc1ccc(F)c([C@]2(C(F)F)COCC(N)=N2)c1` [Example 21, (R)-5-Difluoromethyl-5-[2-fluoro-5-(5-methoxy-pyrimidin-4-ylamino)-phenyl]-5,6-dihydro-2H-[1,4]oxazin-3-ylamine], the results for the IC50 (at human BACE-1; at human BACE-2; in experiment [1] (Cricetulus griseus)) were 1500 nM, 560 nM and 430 nM, respectively.
The corresponding values for `NC1=N[C@@](c2cc(Nc3ncccc3OC(F)F)ccc2F)(C(F)F)COC1` [Example 22, (R)-5-[5-(3-Difluoromethoxy-pyridin-2-ylamino)-2-fluoro-phenyl]-5-difluoromethyl-5,6-dihydro-2H-[1,4]oxazin-3-ylamine] are 970 nM, 340 nM and 240 nM.
The corresponding values for `C[C@@]1(c2cc(Nc3ncnc4cc(Cl)cnc34)ccc2F)CO[C@@](C)(C(F)(F)F)C(N)=N1` [Example 23, [3-((3R,6R)-5-Amino-3,6-dimethyl-6-trifluoromethyl-3,6-dihydro-2H-[1,4]oxazin-3-yl)-4-fluoro-phenyl]-(7-chloro-pyrido[3,2-d]pyrimidin-4-yl)-amine di-hydrochloride] are 40 nM, 11 nM and 51 nM.
Consider `C[C@@]1(c2cc(Nc3ncnc4cc(C(F)(F)F)cnc34)ccc2F)CO[C@@](C)(C(F)(F)F)C(N)=N1` [Example 24, [3-((3R,6R)-5-Amino-3,6-dimethyl-6-trifluoromethyl-3,6-dihydro-2H-[1,4]oxazin-3-yl)-4-fluoro-phenyl]-(7-trifluoromethyl-pyrido[3,2-d]pyrimidin-4-yl)-amine], for which the concentration for half-maximal inhibition (IC50) is 83 nM on human BACE-1, 280 nM at human BACE-2 and 46 nM in experiment [1] (Cricetulus griseus).
The corresponding values for `COc1cccnc1Nc1ccc(F)c([C@]2(C)CO[C@@](C)(C(F)(F)F)C(N)=N2)c1` [Example 25, (2R,5R)-5-[2-Fluoro-5-(3-methoxy-pyridin-2-ylamino)-phenyl]-2,5-dimethyl-2-trifluoromethyl-5,6-dihydro-2H-[1,4]oxazin-3-ylamine] are 210 nM, 27 nM and 220 nM.
The corresponding values for `COc1cc([N+](=O)[O-])cnc1Nc1ccc(F)c([C@]2(C(F)F)COCC(N)=N2)c1` [Example 26, (R)-5-Difluoromethyl-5-[2-fluoro-5-(3-methoxy-5-nitro-pyridin-2-ylamino)-phenyl]-5,6-dihydro-2H-[1,4]oxazin-3-ylamine] are 2900 nM, 1400 nM and 690 nM.
The corresponding values for `COc1cc(N)cnc1Nc1ccc(F)c([C@]2(C(F)F)COCC(N)=N2)c1` [Example 27, N*2*-[3-((R)-5-Amino-3-difluoromethyl-3,6-dihydro-2H-[1,4]oxazin-3-yl)-4-fluoro-phenyl]-3-methoxy-pyridine-2,5-diamine] are 3000 nM, 660 nM and 2000 nM.
Regarding `C[C@@]1(c2nc(Nc3ncnc4cc(C(F)(F)F)cnc34)ccc2F)CO[C@@](C)(C(F)(F)F)C(N)=N1` [Example 28, [6-((3R,6R)-5-Amino-3,6-dimethyl-6-trifluoromethyl-3,6-dihydro-2H-[1,4]oxazin-3-yl)-5-fluoro-pyridin-2-yl]-(7-trifluoromethyl-pyrido[3,2-d]pyrimidin-4-yl)-amine], the 50% inhibitory concentration (IC50) on human BACE-1 is 68 nM; at human BACE-2, 200 nM; in experiment [1] (Cricetulus griseus), 150 nM.
The corresponding values for `C[C@@]1(c2nc(Nc3ncccc3C#N)ccc2F)CO[C@@](C)(C(F)(F)F)C(N)=N1` [Example 30, 2-[6-((3R,6R)-5-Amino-3,6-dimethyl-6-trifluoromethyl-3,6-dihydro-2H-[1,4]oxazin-3-yl)-5-fluoro-pyridin-2-ylamino]-nicotinonitrile] are 1500 nM, 1600 nM and 150 nM.
The corresponding values for `COc1cccnc1Nc1ccc(F)c([C@]2(C)CO[C@@](C)(C(F)(F)F)C(N)=N2)n1` [Example 31, (2R,5R)-5-[3-Fluoro-6-(3-methoxy-pyridin-2-ylamino)-pyridin-2-yl]-2,5-dimethyl-2-trifluoromethyl-5,6-dihydro-2H-[1,4]oxazin-3-ylamine] are 6400 nM, 1700 nM and 1000 nM.
Take `Cn1nc(Nc2cccc([C@]3(C)COCC(N)=N3)c2)c2ccccc21` [Example 32, [3-((R)-5-Amino-3-methyl-3,6-dihydro-2H-[1,4]oxazin-3-yl)-phenyl]-(1-methyl-1H-indazol-3-yl)-amine]: the IC50 at human BACE-1 is more than 10000 nM; at human BACE-2, more than 10000 nM; in experiment [1] (Cricetulus griseus) it was 8300 nM.
`COc1cnc(N)nc1Nc1ccc(F)c([C@]2(C(F)F)COCC(N)=N2)c1` [N*4*-[3-((R)-5-amino-3-difluoromethyl-3,6-dihydro-2H-[1,4]oxazin-3-yl)-4-fluoro-phenyl]-5-methoxy-pyrimidine-2,4-diamine]: the 50% inhibitory concentration (IC50) (on human BACE-1; on human BACE-2; in experiment [1] (Cricetulus griseus)) was more than 10000 nM throughout.

In general, IC50 refers to the concentration needed to halve the response being measured.
